Source: patent publication US8361711B2, “Tools and methods useful in characterising the immunotoxic activity of xenobiotic substances” (National Institute of Public Health and the Environment, …, priority 2004, dated 2013)
Where a name gives a salt, the structure may show the parent alone.

Tests used:
[1] = test system: IL-2 fused to a stabile form of EGFP; experiment: Clones with IL-2 regulatory elements fused to a stabile form of EGFP; type: cell-based, mouse
Description: (§1) Samples were analyzed in an EPICS® XL-MCL Coulter flow cytometer with Expo v.2 Analysis Software/Expo32 Analysis Software (Applied Cytometry Systems, Sheffield, UK). or any other suitable flow cytometer. Viable and dead cells were gated separately and results were determined based on fluorescence associated with viable cells only. Regions were set in control cells and the same regions were used in induction controls and chemically challenged cells. Percent positive cells and fluorescence intensity were noted and used in further calculations.
(§2) Index numbers were calculated from the median fluorescence intensity of viable cells. Cells incubated in the absence or presence of ionomycin/PMA were analysed separately. Each clone incubated with or without ionomycin/PMA, but without further chemicals/compounds was defined as index number=1, and the index numbers for the other exposures were calculated from this.
(§3) One way ANOVAs (one way analysis of variance) were performed. In cases where normality failed, we used Kruskal-Wallis One Way Analysis of Variance on Ranks. If the differences between groups were statistically significant (p<0.05), we continued with tests for multiple comparisons. In normally distributed data we used Bonferroni t-test and multiple comparisons versus the control. The control was chosen to be the sample incubated in the presence or absence of ionomycin/PMA only. When normality failed we used […] for multiple comparisons versus the control.

[2] = test system: IFN-γ fused to a stabile form of EGFP; experiment: Clones with IFN-γ regulatory elements fused to a stabile form of EGFP; type: cell-based, mouse
Description: as §1, §2, §3

[3] = test system: IFN-γ promoter dEGFP reporter, EL/p1-5′IFNγ-dEGFP/3 (EL4); experiment: Prototype cell chip, flow cytometry, IFN-γ clone; type: cell-based, mouse
Description: as §1
as §2, with “this. Experiments with the same exposures were pooled to perform statistical analysis, using SigmaStat 2.03 statistical analysis software (SPSS Inc., Chicago, Ill. USA).” for “this.”
as §3
(§4) The following cell lines: EL/pCA-dEGFP/9, EL/p1-5′IL2-dEGFP/6, EL/p2-5′ IL4-dEGFP/2, EL/p1-5′IFNγ-dEGFP/3, and EL/p2-5′IL10-dEGFP/5, obtained by transfection with the DNA constructs containing promoter region derived from β-actin, IL2, IL4, INF-γ, and IL10 were employed to design the prototype cell chip. The prototype cell chip was used to test the activity of different substances.

[4] = test system: cell lines developed in the project; experiment: Cytotoxicity (cell viability) testing, LDH release; conditions: for concentration which led to 10% cytotoxicity: highest concentration used on the cell chip
Description: The basic cytotoxicty assay employed was LDH release. Several cytotoxicity assays were performed independently in two laboratories. […] In addition, the cytotoxicity associated with the solvent was also tested to eliminate the possibility of interference in the test outcome.
Cells were plated in 24 well microtiter plates at a density of 0.5×10^6 cells/mL and with a final volume of 1.5 mL/well. Two controls were included for each cell line, in each experiment.

[5] = test system: IL-4 promoter dEGFP reporter, EL/p2-5′IL4-dEGFP/2 (EL4); experiment: Prototype cell chip, flow cytometry, IL-4 clone; type: cell-based, mouse
Description: as §1
as §2, with “this. Experiments with the same exposures were pooled to perform statistical analysis, using SigmaStat 2.03 statistical analysis software (SPSS Inc., Chicago, Ill. USA).” for “this.”
as §3, §4

[6] = test system: IL-2 promoter dEGFP reporter, EL/p1-5′IL2-dEGFP/6 (EL4); experiment: Prototype cell chip, flow cytometry, IL-2 clone; type: cell-based, mouse
Description: as §1
as §2, with “this. Experiments with the same exposures were pooled to perform statistical analysis, using SigmaStat 2.03 statistical analysis software (SPSS Inc., Chicago, Ill. USA).” for “this.”
as §3, §4

[7] = test system: IL-10 promoter dEGFP reporter, EL/p2-5′IL10-dEGFP/5 (EL4); experiment: Prototype cell chip, flow cytometry, IL-10 clone; type: cell-based
Description: as §1
as §2, with “this. Experiments with the same exposures were pooled to perform statistical analysis, using SigmaStat 2.03 statistical analysis software (SPSS Inc., Chicago, Ill. USA).” for “this.”
as §3, §4

[8] = test system: β-actin promoter dEGFP reporter, EL/pCA-dEGFP/9 (EL4); experiment: Prototype cell chip, flow cytometry, control clone; type: cell-based
Description: as §1
as §2, with “this. Experiments with the same exposures were pooled to perform statistical analysis, using SigmaStat 2.03 statistical analysis software (SPSS Inc., Chicago, Ill. USA).” for “this.”
as §3, §4

[9] = test system: IL-2 reporter cells EL/p1-5′IL2-EGFP/3 and EL/p1-5′IL2-dEGFP/6 (EL4); experiment: Preliminary test of IL-2 reporter cells (FACS, fluorescence microscope, Fluorostar); type: cell-based, mouse
IFNγ = experiment: RT-PCR of endogenous cytokine expression in activated reporter cell lines; type: cell-based
Description: (§5) In order to correlate the GFP expression data with effects on the expression of endogenous cytokine mRNA, RT-PCR analysis was performed. Non-transfected EL4 and BW5147.3 cells were activated with TPA/ionomycin or anti-CD3 and RNA was prepared. Following cDNA synthesis PCR was performed to detect expression of IL-2, IFNγ, and GAPDH (control). The results generally agree with the GFP expression data. In BW5147.3 cells neither IL-2, nor IFNγ mRNA, could be detected in non-induced cells or after activation. In EL4 cells, IL-2 and IFNγ expression could be induced by TPA/ionomycin, but not anti-CD3.
(§6) For EL4 derived cells basal GFP expression was not affected following treatment with any of the above chemicals. […] This inhibitory effect of Cyclosporine was observed independently in all three laboratories performing such experiments. Furthermore, this inhibition of EGFP expression was detected with all three techniques emplyed for EGFP measurements (i.e. FACS, fluorescence microscope, and Fluorostar).

IL-2 = experiment: as above; type: cell-based
Description: as §5, §6

[10] = test system: BW5147.3 derived GFP transfected cell clones; experiment: BW5147.3 derived GFP transfected cell clones, GFP expression; type: cell-based
Text: BW5147.3 derived GFP transfected cell clones have been also used to test the effects of immunomodulatory compounds.

[11] = test system: J/p4-5′IL1β-dEGFP/4 reporter cell line; type: cell-based
[12] = test system: IL-1β promoter dEGFP reporter, J/p4-5′IL1β-dEGFP/4 cells; type: cell-based, mouse
[13] = absence of ionomycin/PMA, all tested concentrations
[14] = presence of ionomycin/PMA, 1:10 dilution
[15] = absence of ionomycin/PMA, highest concentration, 24 h
[16] = presence of ionomycin/PMA, highest concentration, 24 h
[17] = presence of ionomycin/PMA, all tested concentrations
[18] = presence of ionomycin/PMA, highest concentration
[19] = presence of ionomycin/PMA, 1:10 dilution, 24 h
[20] = presence of ionomycin/PMA, all tested concentrations, 24 h
[21] = absence of ionomycin/PMA, highest concentration
[22] = presence of ionomycin/PMA, 1:100 dilution
[23] = absence of ionomycin/PMA, 1:10 dilution, 24 h

Compound: CCC[CH2][Sn]([CH2]CCC)([CH2]CCC)[O][Sn]([CH2]CCC)([CH2]CCC)[CH2]CCC [TBTO, Bis(tri-n-butyltin) oxide]
- IL-2 expression, stabile EGFP clone [1, 13]: failed to show altered expression
- IL-2 expression, stabile EGFP clone [1, 14]: statistically significant inhibition
- IL-2 inhibition, stabile EGFP clone [1, 14]: 10%
- IFN-γ expression, stabile EGFP clone [2, 13]: failed to show altered expression

Compound: Cc1ccc(N=C=O)cc1N=C=O [TDI, Tolylene 2,4-diisocyanate]
- IFN-γ clone fluorescence vs control [3, 15]: significant induction
- concentration which led to 10% cytotoxicity [4]: 500 µM
- IL-4 clone fluorescence vs control [5, 16]: statistically significant increase

Compound: [Cl][Hg][Cl] [mercuric chloride, Mercury (II) chloride]
- IL-2 expression, stabile EGFP clone [1, 13]: exposure effects were not observed
- IL-2 expression, stabile EGFP clone [1, 17]: not affected
- IFN-γ expression, stabile EGFP clone [2, 13]: exposure effects were not observed
- IFN-γ expression, stabile EGFP clone [2, 18]: apparently dose-dependent reduction

Compound: CO[C@H]1C[C@@H]2CC[C@@H](C)[C@@](O)(O2)C(=O)C(=O)N2CCCC[C@H]2C(=O)O[C@H]([C@H](C)C[C@@H]2CC[C@@H](O)[C@H](OC)C2)CC(=O)[C@H](C)/C=C(\C)[C@@H](O)[C@@H](OC)C(=O)[C@H](C)C[C@H](C)/C=C/C=C/C=C/1C [Rapamycin]
- concentration which led to 10% cytotoxicity [4]: 10 µg/mL

Compound: CCOC(=O)c1ccc(N)cc1 [benzocaine, Ethyl-4-Aminobenzoate]
- IL-2 clone fluorescence vs control [6, 19]: statistically significant inhibitory effect
- IL-2 clone fluorescence vs control [6, 16]: statistically significant inhibitory effect
- IFN-γ clone fluorescence vs control [3, 16]: inhibited
- toxicity (LDH-assay) [4]: did not find benzocaine to be toxic
- IL-10 clone fluorescence vs control [7, 19]: statistically significant inhibitory effect
- IL-10 clone fluorescence vs control [7, 16]: statistically significant inhibitory effect
- actin clone fluorescence vs control [8, 15]: significantly increased

Compound: Clc1cc2c(cc1Cl)Oc1cc(Cl)c(Cl)cc1O2 [TCDD]
- basal GFP expression ([9]; EL4 derived cells, not activated): not affected
- activation induced GFP expression ([9]; activation with TPA/ionophore): did not have any effect
- upregulation of expression of IFNγ (RT-PCR) (IFNγ): had no effect
- upregulation of expression of IL-2 (RT-PCR) (IL-2): had no effect
- basal GFP expression [10]: did not affect the basal GFP expression

Compound: CCCCCCCCCCCCOS(=O)(=O)[O-].[Na+] [SDS, Sodium Dodecyl Sulphate]
- IL-2 expression, stabile EGFP clone [1, 13]: exposure effects were not observed
- IL-2 expression, stabile EGFP clone [1, 18]: apparently dose-dependent reduction
- IFN-γ expression, stabile EGFP clone [2, 13]: exposure effects were not observed
- IFN-γ expression, stabile EGFP clone [2, 17]: not affected

Compound: O=[N+]([O-])c1ccc(Cl)c([N+](=O)[O-])c1 [DNCB, 1-Chloro-2,4-dinitrobenzene]
- IL-2 expression, stabile EGFP clone [1, 17]: failed to alter expression
- IL-2 clone fluorescence vs control [6, 15]: increased expression
- IL-2 clone fluorescence vs control [6, 20]: no statistically significant changes were found
- IFN-γ clone fluorescence vs control [3, 15]: increased expression
- IFN-γ clone fluorescence vs control [3, 20]: no statistically significant changes were found
- concentration which led to 10% cytotoxicity [4]: 10 µM
- IL-4 clone fluorescence vs control [5, 15]: increased expression
- IL-4 clone fluorescence vs control [5, 20]: no statistically significant changes were found
- IL-10 clone fluorescence vs control [7, 20]: no statistically significant changes were found
- actin clone fluorescence vs control [8, 15]: increased expression
- actin clone fluorescence vs control [8, 20]: no statistically significant changes were found
- IFN-γ expression, stabile EGFP clone [2, 21]: apparently dose-dependent increase reaching statistical significance at the highest concentration
- IFN-γ expression, stabile EGFP clone [2, 17]: failed to alter expression

Compound: O=C1CCC(N2C(=O)c3ccccc3C2=O)C(=O)N1 (racemic) [thalidomide, (+/−)—Thalidomide]
- IL-2 inhibition, stabile EGFP clone [1, 21]: 10%
- IL-2 expression, stabile EGFP clone [1, 14]: did not show detectable effects
- IL-2 expression, stabile EGFP clone [1, 22]: did not show detectable effects
- IL-2 expression, stabile EGFP clone [1, 18]: dose-dependent inhibition
- IL-2 clone fluorescence vs control [6, 13]: did not show any significant changes
- IL-2 clone fluorescence vs control [6, 20]: only actin inhibited
- IFN-γ clone fluorescence vs control [3, 13]: did not show any significant changes
- IFN-γ clone fluorescence vs control [3, 20]: only actin inhibited
- toxicity (LDH-assay) [4]: did not find thalidomide to be toxic
- IL-4 clone fluorescence vs control [5, 13]: did not show any significant changes
- IL-4 clone fluorescence vs control [5, 20]: only actin inhibited
- IL-10 clone fluorescence vs control [7, 13]: did not show any significant changes
- IL-10 clone fluorescence vs control [7, 20]: only actin inhibited
- actin clone, inhibition [8, 21]: 5-10%
- actin clone fluorescence vs control [8, 18]: inhibited
- IFN-γ expression, stabile EGFP clone [2, 14]: did not show detectable effects
- IFN-γ expression, stabile EGFP clone [2, 22]: did not show detectable effects
- IFN-γ expression, stabile EGFP clone [2, 18]: dose-dependent inhibition

Compound: [Cl][Pt-2]([Cl])([Cl])[Cl].[K+].[K+] [K2PtCl4, Potassium tetrachloro-platinate (II)]
- IL-2 expression, stabile EGFP clone [1, 13]: exposure effects were not observed
- IL-2 expression, stabile EGFP clone [1, 18]: dose-dependent reduction
- NO levels in supernatants [11]: elevated levels
- GFP fluorescence under microscope [12]: didn′t show noticeable fluorescence
- mRNA for GFP ([12]; 100 μM, stimulated for 6 h): upregulation of mRNA for GFP
- IFN-γ expression, stabile EGFP clone [2, 13]: exposure effects were not observed
- IFN-γ expression, stabile EGFP clone [2, 18]: dose-dependent reduction

Compound: N=C(N)c1ccc(OCCCCCOc2ccc(C(=N)N)cc2)cc1 [pentamidine, Pentamidine isethionate salt]
- IL-2 clone fluorescence vs control [6, 19]: suppressed
- IL-2 clone fluorescence vs control [6, 16]: suppressed
- IFN-γ clone fluorescence vs control [3, 16]: suppressed
- concentration which led to 10% cytotoxicity [4]: 30 µg/mL
- IL-4 clone fluorescence vs control [5, 19]: suppressed
- IL-4 clone fluorescence vs control [5, 16]: suppressed
- IL-10 clone fluorescence vs control [7, 23]: clearly inhibited
- IL-10 clone fluorescence vs control [7, 15]: clearly inhibited
- IL-10 clone fluorescence vs control [7, 19]: suppressed
- IL-10 clone fluorescence vs control [7, 16]: suppressed
- actin clone fluorescence vs control [8, 23]: increase
- actin clone fluorescence vs control [8, 15]: increase
- actin clone fluorescence vs control [8, 20]: not altered
